Measured values from article doi:10.1101/2020.04.24.059154v2 (biorxiv, 2021).

Biological target: T1, AfLPMO16 (Aspergillus fumigatus, UniProt A0A7D5FGU2)
T1 sequence (A0A7D5FGU2 20-290 limits assumed): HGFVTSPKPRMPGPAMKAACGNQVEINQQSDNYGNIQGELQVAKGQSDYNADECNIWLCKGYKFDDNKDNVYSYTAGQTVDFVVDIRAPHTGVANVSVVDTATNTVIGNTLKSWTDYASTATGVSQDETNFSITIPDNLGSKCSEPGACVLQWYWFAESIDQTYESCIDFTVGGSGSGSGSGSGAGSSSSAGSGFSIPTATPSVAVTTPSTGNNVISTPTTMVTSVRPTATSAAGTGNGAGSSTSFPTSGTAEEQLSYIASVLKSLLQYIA
Assay: spectrophotometric 1-coerulignone formation at […] nm, Lineweaver-Burk plot
Format: biochemical
Conditions: 5 uM hydrogen peroxide as co-substrate, 100 mM phosphate buffer pH 6.0, 30 C

Km: 5.4 mM
SMILES: COc1cccc(OC)c1O [2,6-dimethoxyphenol]
